# Test results published in patent US7507547B2, “Screening assays for antioxidants and antiproliferative compounds” (University of Massachusetts, priority 2004, dated 2009).
# pEC50, pIC50, pKd: −log10 of the molar value. “And” between values parts separate entries of the source, which are not always exact repeats. Identical values can stand only once. Like-named read-outs stand apart in the source and are kept apart here. Square brackets hold non-standard residues; d marks the D form. Peptide text beside a SMILES is read from it. * marks the point of attachment. pGlu = O=C1CC[C@@H](C(=O)O)N1; X1 = O=C(Cc1ccc(O)c(I)c1)*; Nle = CCCC[C@H](N)C(=O)O
# Legend:
# [1] = test system: ATP-induced IP formation in PC3 cells; details: maximal dose (10 μM)
# NTR1 [2] = biological target: T1, NTR1 (Homo sapiens, UniProt P30989); test: ^125I-NT binding to PC3 cells; details: for NT Binding Assay: ability to enhance NT binding in PC3 cells; for Efficacy for altering NT binding to NTR: flavonoids
# T1 construct: endogenous in cells; host or cells: PC3 cells (ATCC)
# bombesin receptor = biological target: T2, bombesin receptor (Homo sapiens, UniProt P30550); test: ^125I-[Nle14]-bombesin binding to PC3 cells
# T2 construct: endogenous in cells; host or cells: PC3 cells (ATCC)
# EGF receptor = biological target: T3, EGF receptor (Homo sapiens, UniProt P00533); test: ^125I-EGF binding to PC3 cells
# T3 construct: endogenous in cells; host or cells: PC3 cells (ATCC)
# β2-adrenergic receptor [3] = biological target: T4, β2-adrenergic receptor (Homo sapiens, UniProt P07550); test: ^125I-pindolol binding to PC3 cells
# T4 construct: endogenous in cells; host or cells: PC3 cells (ATCC)
# [4] = biological target: T5, vasopressin (V1a) receptor (Homo sapiens, UniProt P37288); test: ^125I-HOLVA binding to PC3 cells
# T5 construct: endogenous in cells; host or cells: PC3 cells (ATCC)
# NTR1 [5] = biological target: T1, NTR1; test: ^125I-NT binding to PC3 cell membranes; details: 22° C., 60 minutes
# 5-LOX = details: range of reported values, various blood cell systems; cited from earlier work
# [6] = set-up: key: +: All of the compounds listed in Table 12 were anticancerous; details: from anticancer literature; cited from earlier work
# [7] = biological target: T5, vasopressin (V1a) receptor; test: ^125I-HOLVA binding to PC3 cell membranes; details: 60 μM agent
# [8] = test system: NT-induced inositol phosphate (IP) formation in PC3 cells; test: NT-induced IP formation in PC3 cells; format: cell-based; details: for pIC50: Homo sapiens, PC-3; for IP Formation Efficacy (% decrease): maximal % decrease in NT-induced IP formation
# NTR1 [9] = biological target: T1, NTR1; test: Cell-surface binding and internalization of ^125I-NT in PC3 cells; format: cell-based; details: 50 μM agent, 37° C., prebound at 4° C.
# β2-adrenergic receptor [10] = biological target: T4, β2-adrenergic receptor; test: ^125I-pindolol binding to PC3 cell membranes; details: 60 μM agent
# [11] = test system: IP formation in PC3 cells; test: IP formation in PC3 cells in response to ionomycin; format: cell-based
# Method: Ca^2+-ionophore (ionomycin) stimulated IP formation, reproducing ≅63% of the NT response. […] When added 2 minutes after a maximal dose of NT (30 nM), low doses of ionomycin (2-10 μM) enhanced the NT response. […] In contrast, a maximal dose of ionomycin gave less than additive enhancement of the NT response.
# ERK = test: NT-induced ERK activation in PC3 cells (western blot); format: cell-based; details: for pIC50: Homo sapiens, PC-3, 0.05 h, 3 minutes, 10 nM NT
# Method: Anticancer activity was assessed using methods from Hassan et al., Regul. […] Western blotting was used to assess activation of growth pathways. In particular we measured the activation of a MAP-kinase called ERK using antibodies specific for the phosphorylated form. Serum was withdrawn for 24 hours from 80% confluent PC3 cells in 60 mm dishes. Cells were washed in Locke, then exposed for 3 minutes to 10 nM NT as stimulus. Reactions were stopped on ice, and cells were washed in buffer containing phosphatase and protease inhibitors. Cells were extracted into 2×SDS buffer, and proteins were separated by SDS-PAGE using 10% minigels. Proteins were electroeluted onto PVDF, and blots were blocked in non-fat dry milk in TTBS buffer. Blots were incubated with the primary antibody in blocking buffer for 18 hours at 4° C., washed in TTBS, then incubated with horseradish peroxidase-linked secondary antibody for 1 hour at 20° C. Enhanced chemoluminescence was performed according to manufacturer (Santa Cruz) and autoradiographs were scanned for computerized densitometric analysis. The results for the phospho-ERK were normalized by stripping the blots and reprobing with antibodies that measured the total ERK concentration.
# PC3 cells = test: NT-induced proliferation of PC3 cells (^3H-thymidine); format: cell-based; details: for pIC50: Homo sapiens, PC-3, 24 hours, 10 nM NT, read-out: IC50 for inhibition of NT-induced proliferation
# melanoma cell growth = details: Casagrande and Darbon, 2001; cited from earlier work
# [12] = test system: cancers from skin, pancreas, liver and breast; details: Huang et al., 1999; cited from earlier work
# protein kinase C = details: Ferriola et al., 1989; cited from earlier work
# [13] = biological target: neurotensin-1 receptor (NTR1) (Homo sapiens, UniProt P30989); details: read-out: binding affinity; cited from earlier work
# [14] = biological target: neurotensin-2 receptor (NTR2) (Homo sapiens, UniProt O95665); details: read-out: binding affinity; cited from earlier work
# [15] = [agent] at which IP formation was decreased by 50%
# [16] = 10^5 cpm ^125I-ligand, PC3 cells
# T1 sequence (P30989 whole entry): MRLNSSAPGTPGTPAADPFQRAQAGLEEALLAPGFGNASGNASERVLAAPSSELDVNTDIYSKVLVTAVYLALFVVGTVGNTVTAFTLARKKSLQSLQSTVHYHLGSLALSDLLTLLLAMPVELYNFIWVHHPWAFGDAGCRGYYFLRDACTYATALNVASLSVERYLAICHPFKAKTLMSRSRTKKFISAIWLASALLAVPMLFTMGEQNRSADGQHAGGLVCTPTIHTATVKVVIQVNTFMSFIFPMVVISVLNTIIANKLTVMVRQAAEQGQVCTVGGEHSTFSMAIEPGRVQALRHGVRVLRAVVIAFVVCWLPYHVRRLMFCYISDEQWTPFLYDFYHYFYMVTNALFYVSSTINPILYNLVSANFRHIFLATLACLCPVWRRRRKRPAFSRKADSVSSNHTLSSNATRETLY
# T5 sequence (P37288 whole entry): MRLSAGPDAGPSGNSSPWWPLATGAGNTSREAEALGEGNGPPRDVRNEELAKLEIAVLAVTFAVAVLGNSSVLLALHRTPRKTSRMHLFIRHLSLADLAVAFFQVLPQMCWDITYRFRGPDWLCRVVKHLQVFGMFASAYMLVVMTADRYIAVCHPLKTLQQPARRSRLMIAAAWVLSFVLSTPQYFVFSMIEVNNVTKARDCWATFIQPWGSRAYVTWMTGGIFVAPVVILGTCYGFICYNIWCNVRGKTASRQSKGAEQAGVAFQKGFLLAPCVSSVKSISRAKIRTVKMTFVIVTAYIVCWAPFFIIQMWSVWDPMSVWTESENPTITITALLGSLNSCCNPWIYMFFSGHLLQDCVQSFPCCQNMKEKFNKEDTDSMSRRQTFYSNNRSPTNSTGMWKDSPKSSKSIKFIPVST
# T4 sequence (P07550 whole entry): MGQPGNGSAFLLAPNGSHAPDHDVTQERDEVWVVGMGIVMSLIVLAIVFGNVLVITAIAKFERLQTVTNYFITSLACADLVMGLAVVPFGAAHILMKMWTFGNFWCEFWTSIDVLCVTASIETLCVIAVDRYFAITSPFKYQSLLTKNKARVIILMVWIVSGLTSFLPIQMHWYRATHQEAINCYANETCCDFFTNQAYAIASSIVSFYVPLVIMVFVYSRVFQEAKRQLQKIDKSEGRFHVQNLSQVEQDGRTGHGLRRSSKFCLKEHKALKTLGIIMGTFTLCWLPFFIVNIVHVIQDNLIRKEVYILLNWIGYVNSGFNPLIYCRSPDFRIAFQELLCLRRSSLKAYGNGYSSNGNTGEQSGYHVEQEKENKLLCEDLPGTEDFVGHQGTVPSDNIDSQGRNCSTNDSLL
# T3 sequence (P00533 25-1210): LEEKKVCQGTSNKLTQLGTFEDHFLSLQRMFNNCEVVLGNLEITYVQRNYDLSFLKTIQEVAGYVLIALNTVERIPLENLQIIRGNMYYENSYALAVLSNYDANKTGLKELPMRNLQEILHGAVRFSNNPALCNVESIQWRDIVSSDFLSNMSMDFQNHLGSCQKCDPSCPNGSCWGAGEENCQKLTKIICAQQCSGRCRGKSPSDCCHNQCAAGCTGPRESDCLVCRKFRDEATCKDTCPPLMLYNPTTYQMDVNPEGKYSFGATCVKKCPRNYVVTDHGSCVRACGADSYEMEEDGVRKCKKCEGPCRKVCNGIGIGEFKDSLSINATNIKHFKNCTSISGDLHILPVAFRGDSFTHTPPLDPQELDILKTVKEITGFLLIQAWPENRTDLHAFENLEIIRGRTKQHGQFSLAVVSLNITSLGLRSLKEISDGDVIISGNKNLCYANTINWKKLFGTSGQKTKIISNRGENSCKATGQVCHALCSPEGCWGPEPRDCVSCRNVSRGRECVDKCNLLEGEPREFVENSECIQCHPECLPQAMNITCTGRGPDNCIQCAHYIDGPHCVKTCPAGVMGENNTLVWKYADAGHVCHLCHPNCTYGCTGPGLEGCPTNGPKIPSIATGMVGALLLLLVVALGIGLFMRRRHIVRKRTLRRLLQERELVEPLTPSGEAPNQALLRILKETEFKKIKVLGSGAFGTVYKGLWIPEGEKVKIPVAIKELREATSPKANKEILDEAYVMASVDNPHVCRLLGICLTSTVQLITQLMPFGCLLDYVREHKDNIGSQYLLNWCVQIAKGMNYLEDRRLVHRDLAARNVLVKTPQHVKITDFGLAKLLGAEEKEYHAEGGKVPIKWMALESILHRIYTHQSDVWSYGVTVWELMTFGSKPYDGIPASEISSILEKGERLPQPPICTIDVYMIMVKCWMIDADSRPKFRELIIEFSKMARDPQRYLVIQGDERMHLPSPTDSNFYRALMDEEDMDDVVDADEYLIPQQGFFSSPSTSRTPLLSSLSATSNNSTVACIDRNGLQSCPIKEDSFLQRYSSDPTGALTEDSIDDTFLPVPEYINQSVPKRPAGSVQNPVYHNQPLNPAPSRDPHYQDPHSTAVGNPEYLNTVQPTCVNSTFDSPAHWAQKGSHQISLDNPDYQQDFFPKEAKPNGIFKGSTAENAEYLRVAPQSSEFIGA
# T2 sequence (P30550 whole entry): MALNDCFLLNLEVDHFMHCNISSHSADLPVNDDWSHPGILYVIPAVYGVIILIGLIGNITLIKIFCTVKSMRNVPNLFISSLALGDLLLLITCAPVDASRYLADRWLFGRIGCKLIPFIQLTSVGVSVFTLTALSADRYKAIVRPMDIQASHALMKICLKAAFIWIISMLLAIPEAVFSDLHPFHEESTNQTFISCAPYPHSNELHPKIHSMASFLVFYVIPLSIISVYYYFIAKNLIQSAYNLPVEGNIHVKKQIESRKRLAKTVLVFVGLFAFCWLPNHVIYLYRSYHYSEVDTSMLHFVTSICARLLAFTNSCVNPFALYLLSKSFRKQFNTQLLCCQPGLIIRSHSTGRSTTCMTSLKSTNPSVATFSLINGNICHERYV
# neurotensin-1 receptor (NTR1), sequence (P30989 whole entry, species assumed): as the sequence (P30989 whole entry) above
# neurotensin-2 receptor (NTR2), sequence (O95665 whole entry, species assumed): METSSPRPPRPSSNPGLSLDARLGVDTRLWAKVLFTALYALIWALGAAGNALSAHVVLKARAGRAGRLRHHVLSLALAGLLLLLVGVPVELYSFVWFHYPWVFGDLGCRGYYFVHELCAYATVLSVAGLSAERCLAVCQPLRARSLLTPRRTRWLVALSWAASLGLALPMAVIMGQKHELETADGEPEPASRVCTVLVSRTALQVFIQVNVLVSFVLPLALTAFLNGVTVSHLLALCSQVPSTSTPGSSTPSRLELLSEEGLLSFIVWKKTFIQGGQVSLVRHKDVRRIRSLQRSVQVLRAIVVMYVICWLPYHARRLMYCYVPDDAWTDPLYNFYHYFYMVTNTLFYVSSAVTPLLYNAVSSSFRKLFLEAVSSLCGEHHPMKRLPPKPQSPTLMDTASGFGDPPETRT
compound,measurement,setting,value
Nc1ncnc2c1ncn2[C@@H]1O[C@H](COP(=O)(O)OP(=O)(O)OP(=O)(O)O)[C@@H](O)[C@H]1O [ATP],Stimulation of IP formation by ATP,[1],~17 fold and > 15 fold
CC(C)c1ccc2c(c1)c(SC(C)(C)C)c(CC(C)(C)C(=O)O)n2Cc1ccc(Cl)cc1 [MK886],NT Binding Efficacy % increase,NTR1 [2]; LOX blockers,210 % increase
same,pEC50,NTR1 [2]; [agent] giving 100% increase in NT binding,4.74
same,NT Binding Assay,NTR1 [2],+
same,Specific Binding (% control),bombesin receptor; 12 μM agent,106 ± 5 % control
same,Specific Binding (% control),bombesin receptor; 60 μM agent,125 ± 7 % control
same,Specific Binding (% control),EGF receptor; 12 μM agent,141 ± 7 % control
same,Specific Binding (% control),EGF receptor; 60 μM agent,165 ± 11 % control
same,Increase in EGF binding,EGF receptor; PC3 cells,65%
same,Specific Binding (% control),β2-adrenergic receptor [3]; 12 μM agent,105 ± 3 % control
same,Specific Binding (% control),β2-adrenergic receptor [3]; 60 μM agent,102 ± 6 ^ % control
same,Specific Binding (% control),[4]; 12 μM agent,93 ± 5 % control
same,Specific Binding (% control),[4]; 60 μM agent,67 ± 3 % control
same,Specific NT-Binding (% control),NTR1 [5]; 10 μM agent,99 ± 3 % control
same,Specific NT-Binding (% control),NTR1 [5]; 25 μM agent,107 ± 4 % control
same,Specific NT-Binding (% control),NTR1 [5]; 75 μM agent,97 ± 4 % control
same,pIC50,5-LOX,6.00 to 7.00
same,Anti-cancer,[6],+
"COC(=O)C1=C(C)NC(C)=C(C(=O)OC)C1c1ccccc1[N+](=O)[O-] [NIF, nifedipine]",Binding (% control ± SEM),[7],90 ± 3 % control
O=C(CCc1ccc(O)cc1)c1c(O)cc(O)cc1O [Phloretin],pEC50,NTR1 [2],4.57
same,pIC50,[8]; [15],4.64
same,IP Formation Efficacy (% decrease),[8],70 % decrease
same,Internalization rate of prebound cell-surface ^125I-NT,NTR1 [9],8.1±0.7 %/minute
COc1ccc(CCCOC(Cn2ccnc2)c2ccc(OC)cc2)cc1 (centres unmarked) [SKF-96365],pEC50,NTR1 [2]; [agent] at which NT binding was increased by 80%,4.64
same,NT Binding Efficacy % increase,NTR1 [2]; maximal % increase in NT binding observed for each agent,155 % increase
same,% crossreaction (direct competition with ^125I-pindolol),β2-adrenergic receptor [3],~0.0005%
same,pIC50,[8]; [15],4.59
same,IP Formation Efficacy (% decrease),[8],69 % decrease
same,Binding (% control ± SEM),β2-adrenergic receptor [10],18 ± 5 % control
same,Binding (% control ± SEM),[7],110 ± 3 % control
"COc1ccc(CCN(C)CCCC(C#N)(c2ccc(OC)c(OC)c2)C(C)C)cc1OC (centres unmarked) [Verapamil, verapamil]",% crossreaction (direct competition with ^125I-pindolol),β2-adrenergic receptor [3],~0.0005%
same,Binding (% control ± SEM),β2-adrenergic receptor [10],9 ± 2 % control
same,Binding (% control ± SEM),[7],91 ± 5 % control
"CCOc1ccc(C[C@@H](NC(=O)Cc2ccc(O)c(I)c2)C(=O)N[C@@H](Cc2ccccc2)C(=O)N[C@@H](CCC(N)=O)C(=O)N[C@@H](CC(N)=O)C(=O)N[C@@H](CCCCN)C(=O)N2CCC[C@H]2C(=O)N[C@@H](CCCNC(=N)N)C(N)=O)cc1 [^125I-HOLVA, des-Gly-[Phaal, D-Tyr(Et)2, Lys6, Arg8]-vasopressin] (X1-[dY](Et)FQNKPR-NH2; N-terminus and C-terminus assumed)",Specific Binding (% of total),[4]; [16],77 % of total
same,Bmax,[4]; Scatchard analysis,156 ± 12 fmol/mg
CCCC[C@H](NC(=O)[C@H](CC(C)C)NC(=O)[C@H](Cc1c[nH]cn1)NC(=O)CNC(=O)[C@@H](NC(=O)[C@H](C)NC(=O)[C@H](Cc1c[nH]c2ccccc12)NC(=O)[C@H](CCC(N)=O)NC(=O)[C@H](CC(N)=O)NC(=O)CNC(=O)[C@H](Cc1ccc(O)cc1)NC(=O)[C@H](CCCNC(=N)N)NC(=O)[C@H](CCC(N)=O)NC(=O)[C@@H]1CCC(=O)N1)C(C)C)C(N)=O [^125I-[Nle^14]-bombesin] ([pGlu]QRYGNQWAVGHL[Nle]-NH2; C-terminus assumed),Specific Binding (% of total),bombesin receptor; [16],95 % of total
same,Bmax,bombesin receptor; Scatchard analysis,1016 ± 64 fmol/mg
C[C@H](CCC(=O)O)C[C@H](C)C[C@H](C)C(=O)/C=C(\O)[C@H](C)C[C@H](C)C/C=C/[C@@H](C)[C@@H](O)[C@@H](C)[C@@H](O)C[C@@H]1CC[C@@](C)([C@H]2CC[C@@](C)([C@@H](C)O)O2)O1 [ionomycin],IP formation as share of the NT response,[11],~63%
O=c1c(O)c(-c2ccc(O)c(O)c2)oc2cc(O)cc(O)c12 [quercetin],NT Binding Assay,NTR1 [2],+
same,pIC50,ERK,4.60
same,pIC50,PC3 cells,6.30
same,Anti-cancer,[6],+
Oc1ccc(C=Cc2cc(O)cc(O)c2)cc1 [resveratrol],pIC50,[8]; [agent] giving 50% decrease in IP formation,4.32
same,pIC50,ERK,4.30
same,pIC50,PC3 cells,5.52
C(=Cc1ccccc1)c1ccccc1 [stilbene],Effect on NT-induced ERK activation,ERK,inactive
same,Effect on NT-induced cell proliferation,PC3 cells,inactive
O=C1c2c(O)cc(O)cc2O[C@H](c2ccc(O)c(O)c2)[C@H]1O [taxifolin],Efficacy for altering NT binding to NTR,NTR1 [2],inactive
same,Effect on NT-induced ERK activation,ERK,inactive
same,Effect on NT-induced cell proliferation,PC3 cells,inactive
same,Efficacy to inhibit melanoma cell growth,melanoma cell growth,inactive
same,"Efficacy to inhibit growth of cancers from skin, pancreas, liver and breast",[12],inactive
same,Efficacy to inhibit protein kinase C,protein kinase C,inactive
"Trp 11 NT(1-13): peptide identical to NT (1-13) except for substitution of tryptophan for tyrosine at amino acid 11 (QLYENKPRRPWIL; Neurotensin; UniProt P30990 151-163, looked up, variant Y11W)",pKd,[13],~9.00
same,pKd,[14],~7.57
catechin,Efficacy for altering NT binding to NTR,NTR1 [2],inactive
same,Efficacy to inhibit melanoma cell growth,melanoma cell growth,inactive
same,"Efficacy to inhibit growth of cancers from skin, pancreas, liver and breast",[12],inactive
same,Efficacy to inhibit protein kinase C,protein kinase C,inactive
